# Where a SMILES comes first, the peptide text is derived from it.
# Target: T1, HLA‐A2 (Homo sapiens, UniProt P04439, D140Y/D185E/D98H/E176V/E277Q/G131W/G231S/I119V/I121R/I166T/I218V/L300P/L318F/N151K/N90K/P208A/P217A/Q86G/Q94H/R138H/R169H/T345S)
# T1 construct: host or cells: BSM cells (HLA-A2+, HPV16-negative suspension cell line)
# Assay: In vitro competition-based cellular binding assay
# Details: acid-stripped BSM cells, β2M, 150 nM fluorescein-labeled reference peptide FLPSDC(Fl)FPSV, test peptide 0.78–100 μM, overnight 4 °C, flow cytometry; mean of at least three experimental replicates; read-out: Experimental binding affinity [IC50(μM)]
# Experimental: In Vitro Competition Based Binding Assays: In vitro competition‐based binding assays were performed as described in ref. 30. In brief, BSM cells were treated with citric acid buffer to strip off naturally presented peptides. Cells were incubated overnight at 4 °C with β2M, a constant concentration (150 nM) of fluorescein‐labeled HLA‐A2‐binding reference peptide (FLPSDC(Fl)FPSV), and six different concentrations (0.78 –100 μM) of the respective investigated non‐labeled peptide, competing for HLA‐binding. Fluorescence was measured by flow cytometry and data processed with FlowJo 10 (TreeStar, Ashland, OR, USA). A logistic four‐parametric non‐linear regression calculation using SigmaPlot 13 (Systat‐Software, San José, CA, USA) was conducted to calculate binding affinity (IC50). […] The assay was performed with at least three biological replicates for binders and two for non‐binders.
row,SMILES,IC50 [µM]
1,CC[C@H](C)[C@H](NC(=O)[C@H](CC(=O)O)NC(=O)[C@H](Cc1c[nH]cn1)NC(=O)[C@@H](NC(=O)[C@@H](NC(=O)[C@@H](NC(=O)[C@H](CCC(N)=O)NC(=O)[C@H](CC(C)C)NC(=O)[C@@H](N)CCC(=O)O)[C@@H](C)O)[C@@H](C)O)[C@@H](C)CC)C(=O)O [E6_25–33] (H-ELQTTIHDI-OH),36.9
2,CSCC[C@H](NC(=O)[C@H](Cc1ccc(O)cc1)NC(=O)[C@H](CCC(=O)O)NC(=O)[C@H](Cc1c[nH]cn1)NC(=O)[C@H](CC(C)C)NC(=O)[C@@H](N)[C@@H](C)O)C(=O)N[C@@H](CC(C)C)C(=O)N[C@@H](CC(=O)O)C(=O)N[C@@H](CC(C)C)C(=O)N[C@@H](CCC(N)=O)C(=O)N1CCC[C@H]1C(=O)O [E7_7–17] (H-TLHEYMLDLQP-OH),19.3
3,CSCC[C@H](NC(=O)[C@H](Cc1ccc(O)cc1)NC(=O)[C@@H](N)CCC(=O)O)C(=O)N[C@@H](CC(C)C)C(=O)N[C@@H](CC(=O)O)C(=O)N[C@@H](CC(C)C)C(=O)N[C@@H](CCC(N)=O)C(=O)N1CCC[C@H]1C(=O)N[C@@H](CCC(=O)O)C(=O)N[C@H](C(=O)O)[C@@H](C)O [E7_10–19],45.3
4,CSCC[C@H](NC(=O)[C@@H](N)Cc1ccc(O)cc1)C(=O)N[C@@H](CC(C)C)C(=O)N[C@@H](CC(=O)O)C(=O)N[C@@H](CC(C)C)C(=O)N[C@@H](CCC(N)=O)C(=O)N1CCC[C@H]1C(=O)N[C@@H](CCC(=O)O)C(=O)O [E7_11–18] (H-YMLDLQPE-OH),8.07
5,CSCC[C@H](NC(=O)[C@@H](N)Cc1ccc(O)cc1)C(=O)N[C@@H](CC(C)C)C(=O)N[C@@H](CC(=O)O)C(=O)N[C@@H](CC(C)C)C(=O)N[C@@H](CCC(N)=O)C(=O)N1CCC[C@H]1C(=O)N[C@@H](CCC(=O)O)C(=O)N[C@H](C(=O)N[C@H](C(=O)N[C@@H](CC(=O)O)C(=O)O)[C@@H](C)O)[C@@H](C)O [E7_11–21],2.37
6,CSCC[C@H](N)C(=O)N[C@@H](CC(C)C)C(=O)N[C@@H](CC(=O)O)C(=O)N[C@@H](CC(C)C)C(=O)N[C@@H](CCC(N)=O)C(=O)N1CCC[C@H]1C(=O)N[C@@H](CCC(=O)O)C(=O)N[C@H](C(=O)O)[C@@H](C)O [E7_12–19] (H-MLDLQPET-OH),53.7
7,CC[C@H](C)[C@H](N)C(=O)N[C@@H](CCCNC(=N)N)C(=O)N[C@H](C(=O)N[C@@H](CC(C)C)C(=O)N[C@@H](CCC(=O)O)C(=O)N[C@@H](CC(=O)O)C(=O)N[C@@H](CC(C)C)C(=O)N[C@@H](CC(C)C)C(=O)N[C@@H](CCSC)C(=O)NCC(=O)N[C@H](C(=O)O)[C@@H](C)O)[C@@H](C)O [E7_76–86] (H-IRTLEDLLMGT-OH),31.9
8,CSCC[C@H](NC(=O)[C@H](CC(C)C)NC(=O)[C@H](CC(C)C)NC(=O)[C@H](CC(=O)O)NC(=O)[C@H](CCC(=O)O)NC(=O)[C@H](CC(C)C)NC(=O)[C@@H](NC(=O)[C@@H](N)CCCNC(=N)N)[C@@H](C)O)C(=O)NCC(=O)N[C@H](C(=O)O)[C@@H](C)O [E7_77–86],66.9
9,CSCC[C@H](NC(=O)[C@H](CC(C)C)NC(=O)[C@H](CC(C)C)NC(=O)[C@H](CC(=O)O)NC(=O)[C@H](CCC(=O)O)NC(=O)[C@H](CC(C)C)NC(=O)[C@@H](NC(=O)[C@@H](N)CCCNC(=N)N)[C@@H](C)O)C(=O)NCC(=O)N[C@H](C(=O)N[C@@H](CC(C)C)C(=O)O)[C@@H](C)O [E7_77–87] (H-RTLEDLLMGTL-OH),2.69
10,CSCC[C@H](NC(=O)[C@H](CC(C)C)NC(=O)[C@H](CC(C)C)NC(=O)[C@H](CC(=O)O)NC(=O)[C@H](CCC(=O)O)NC(=O)[C@H](CC(C)C)NC(=O)[C@@H](N)[C@@H](C)O)C(=O)NCC(=O)N[C@H](C(=O)O)[C@@H](C)O [E7_78–86] (H-TLEDLLMGT-OH),64.6
11,CC[C@H](C)[C@H](NC(=O)CNC(=O)[C@H](CC(C)C)NC(=O)[C@@H](NC(=O)CNC(=O)[C@H](CCSC)NC(=O)[C@H](CC(C)C)NC(=O)[C@H](CC(C)C)NC(=O)[C@H](CC(=O)O)NC(=O)[C@@H](N)CCC(=O)O)[C@@H](C)O)C(=O)N[C@H](C(=O)O)C(C)C [E7_80–90] (H-EDLLMGTLGIV-OH),14.2
12,CC[C@H](C)[C@H](NC(=O)CNC(=O)[C@H](CC(C)C)NC(=O)[C@@H](NC(=O)CNC(=O)[C@H](CCSC)NC(=O)[C@H](CC(C)C)NC(=O)[C@H](CC(C)C)NC(=O)[C@@H](N)CC(=O)O)[C@@H](C)O)C(=O)N[C@H](C(=O)O)C(C)C [E7_81–90] (H-DLLMGTLGIV-OH),81
